Data from PubChem BioAssay (NCI).
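Results reflect a 48-hour exposure of cells in 96-well plates to compound at five concentrations. The concentration for full growth arrest is given as TGI.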

Legend:
Assay in all cases: growth of human tumour cells (NCI), 48 h
786-0 renal = tested on: 786-0 renal
A498 renal = tested on: A498 renal
A549 NSCLC = tested on: A549 NSCLC
ACHN renal = tested on: ACHN renal
CAKI-1 renal = tested on: CAKI-1 renal
CCRF-CEM leukemia = tested on: CCRF-CEM leukemia
COLO 205 colon = tested on: COLO 205 colon
DLD-1 colon = tested on: DLD-1 colon
DMS 114 small cell lung = tested on: DMS 114 small cell lung
DMS 273 small cell lung = tested on: DMS 273 small cell lung
EKVX NSCLC = tested on: EKVX NSCLC
HCC-2998 colon = tested on: HCC-2998 colon
HCT-116 colon = tested on: HCT-116 colon
HCT-15 colon = tested on: HCT-15 colon
HL-60(TB) leukemia = tested on: HL-60(TB) leukemia
HOP-18 NSCLC = tested on: HOP-18 NSCLC
HOP-62 NSCLC = tested on: HOP-62 NSCLC
HOP-92 NSCLC = tested on: HOP-92 NSCLC
HT29 colon = tested on: HT29 colon
IGROV1 ovarian = tested on: IGROV1 ovarian
K-562 leukemia = tested on: K-562 leukemia
KM12 colon = tested on: KM12 colon
KM20L2 colon = tested on: KM20L2 colon
LOX IMVI melanoma = tested on: LOX IMVI melanoma
LXFL 529 NSCLC = tested on: LXFL 529 NSCLC
M14 melanoma = tested on: M14 melanoma
M19-MEL melanoma = tested on: M19-MEL melanoma
MALME-3M melanoma = tested on: MALME-3M melanoma
MOLT-4 leukemia = tested on: MOLT-4 leukemia
NCI-H226 lung = tested on: NCI-H226 lung
NCI-H23 lung = tested on: NCI-H23 lung
NCI-H460 lung = tested on: NCI-H460 lung
NCI-H522 lung = tested on: NCI-H522 lung
OVCAR-3 ovarian = tested on: OVCAR-3 ovarian
OVCAR-4 ovarian = tested on: OVCAR-4 ovarian
OVCAR-5 ovarian = tested on: OVCAR-5 ovarian
OVCAR-8 ovarian = tested on: OVCAR-8 ovarian
RPMI-8226 leukemia = tested on: RPMI-8226 leukemia
RXF 393 renal = tested on: RXF 393 renal
RXF-631 renal = tested on: RXF-631 renal
SF-268 CNS = tested on: SF-268 CNS
SK-OV-3 ovarian = tested on: SK-OV-3 ovarian
SN12C renal = tested on: SN12C renal
SNB-19 CNS = tested on: SNB-19 CNS
SNB-75 CNS = tested on: SNB-75 CNS
SNB-78 CNS = tested on: SNB-78 CNS
SR leukemia = tested on: SR leukemia
SW-620 colon = tested on: SW-620 colon
TK-10 renal = tested on: TK-10 renal
U251 CNS = tested on: U251 CNS
UACC-257 melanoma = tested on: UACC-257 melanoma
UACC-62 melanoma = tested on: UACC-62 melanoma
UO-31 renal = tested on: UO-31 renal
XF 498 CNS = tested on: XF 498 CNS
BT-549 breast = tested on: BT-549 breast
DU-145 prostate = tested on: DU-145 prostate
HS 578T breast = tested on: HS 578T breast
MDA-MB-231 breast = tested on: MDA-MB-231 breast
MDA-MB-435 = tested on: MDA-MB-435
MDA-N = tested on: MDA-N
NCI/ADR-RES ovarian = tested on: NCI/ADR-RES ovarian
PC-3 prostate = tested on: PC-3 prostate
SF-295 CNS = tested on: SF-295 CNS
SF-539 CNS = tested on: SF-539 CNS
SK-MEL-2 melanoma = tested on: SK-MEL-2 melanoma
SK-MEL-28 melanoma = tested on: SK-MEL-28 melanoma
SK-MEL-5 melanoma = tested on: SK-MEL-5 melanoma
T-47D breast = tested on: T-47D breast

Structure (SMILES): COC(=O)C(C(=O)C(=O)Nc1ccccc1OC)c1csc(-n2nc(-c3ccccc3)cc2-c2ccccc2)n1 (stereo not given)
- TGI (786-0 renal): > 100 µM
- TGI (A498 renal): > 100 µM
- TGI (A549 NSCLC): > 100 µM
- TGI (ACHN renal): > 100 µM
- TGI (CAKI-1 renal): > 100 µM
- TGI (CCRF-CEM leukemia): > 100 µM
- TGI (COLO 205 colon): > 100 µM
- TGI (DLD-1 colon): > 100 µM
- TGI (DMS 114 small cell lung): > 100 µM
- TGI (DMS 273 small cell lung): > 100 µM
- TGI (EKVX NSCLC): > 100 µM
- TGI (HCC-2998 colon): > 100 µM
- TGI (HCT-116 colon): > 100 µM
- TGI (HCT-15 colon): > 100 µM
- TGI (HL-60(TB) leukemia): > 100 µM
- TGI (HOP-18 NSCLC): > 100 µM
- TGI (HOP-62 NSCLC): > 100 µM
- TGI (HOP-92 NSCLC): > 100 µM
- TGI (HT29 colon): > 100 µM
- TGI (IGROV1 ovarian): > 100 µM
- TGI (K-562 leukemia): > 100 µM
- TGI (KM12 colon): > 100 µM
- TGI (KM20L2 colon): > 100 µM
- TGI (LOX IMVI melanoma): > 100 µM
- TGI (LXFL 529 NSCLC): > 100 µM
- TGI (M14 melanoma): > 100 µM
- TGI (M19-MEL melanoma): > 100 µM
- TGI (MALME-3M melanoma): > 100 µM
- TGI (MOLT-4 leukemia): > 100 µM
- TGI (NCI-H226 lung): > 100 µM
- TGI (NCI-H23 lung): > 100 µM
- TGI (NCI-H460 lung): > 100 µM
- TGI (NCI-H522 lung): > 100 µM
- TGI (OVCAR-3 ovarian): > 100 µM
- TGI (OVCAR-4 ovarian): > 100 µM
- TGI (OVCAR-5 ovarian): > 100 µM
- TGI (OVCAR-8 ovarian): > 100 µM
- TGI (RPMI-8226 leukemia): > 100 µM
- TGI (RXF 393 renal): > 100 µM
- TGI (RXF-631 renal): > 100 µM
- TGI (SF-268 CNS): > 100 µM
- TGI (SK-OV-3 ovarian): > 100 µM
- TGI (SN12C renal): > 100 µM
- TGI (SNB-19 CNS): > 100 µM
- TGI (SNB-75 CNS): 92.7 µM
- TGI (SNB-78 CNS): > 100 µM
- TGI (SR leukemia): > 100 µM
- TGI (SW-620 colon): > 100 µM
- TGI (TK-10 renal): > 100 µM
- TGI (U251 CNS): > 100 µM
- TGI (UACC-257 melanoma): > 100 µM
- TGI (UACC-62 melanoma): > 100 µM
- TGI (UO-31 renal): > 100 µM
- TGI (XF 498 CNS): > 100 µM

Structure (SMILES): C=C1C(=O)C=C2C=C3C(=O)C(C)(C)C[C@]3(O)C12C (stereo not given in full)
- TGI (786-0 renal): 3.41 µM
- TGI (A498 renal): 23.2 µM
- TGI (A549 NSCLC): 40.4 µM
- TGI (ACHN renal): 4.53 µM
- TGI (BT-549 breast): 3.05 µM
- TGI (CAKI-1 renal): 3.99 µM
- TGI (CCRF-CEM leukemia): 1.37 µM
- TGI (COLO 205 colon): 3.53 µM
- TGI (DMS 114 small cell lung): 3.61 µM
- TGI (DMS 273 small cell lung): 14 µM
- TGI (DU-145 prostate): 33.9 µM
- TGI (EKVX NSCLC): 51.2 µM
- TGI (HCC-2998 colon): 34.4 µM
- TGI (HCT-116 colon): 9 µM
- TGI (HCT-15 colon): 11.7 µM
- TGI (HL-60(TB) leukemia): 2.54 µM
- TGI (HOP-62 NSCLC): 53.3 µM
- TGI (HOP-92 NSCLC): 3.24 µM
- TGI (HS 578T breast): 43.8 µM
- TGI (HT29 colon): 11.1 µM
- TGI (IGROV1 ovarian): 36.5 µM
- TGI (K-562 leukemia): 3.98 µM
- TGI (KM12 colon): 32.1 µM
- TGI (LOX IMVI melanoma): 11 µM
- TGI (LXFL 529 NSCLC): 2.64 µM
- TGI (M14 melanoma): 3.04 µM
- TGI (M19-MEL melanoma): 11.3 µM
- TGI (MALME-3M melanoma): 3.65 µM
- TGI (MDA-MB-231 breast): 7.59 µM
- TGI (MDA-MB-435): 32.6 µM
- TGI (MDA-N): 13.5 µM
- TGI (MOLT-4 leukemia): 2.28 µM
- TGI (NCI-H226 lung): 45.6 µM
- TGI (NCI-H23 lung): 12.9 µM
- TGI (NCI-H460 lung): 38.2 µM
- TGI (NCI-H522 lung): 3.38 µM
- TGI (NCI/ADR-RES ovarian): > 100 µM
- TGI (OVCAR-3 ovarian): 4.49 µM
- TGI (OVCAR-4 ovarian): 12.7 µM
- TGI (OVCAR-5 ovarian): 21.4 µM
- TGI (OVCAR-8 ovarian): 29.3 µM
- TGI (PC-3 prostate): 10.2 µM
- TGI (RPMI-8226 leukemia): 3.2 µM
- TGI (RXF 393 renal): 3.33 µM
- TGI (RXF-631 renal): 30.9 µM
- TGI (SF-268 CNS): 28.2 µM
- TGI (SF-295 CNS): 45.7 µM
- TGI (SF-539 CNS): > 57.5 µM
- TGI (SK-MEL-2 melanoma): 33.2 µM
- TGI (SK-MEL-28 melanoma): 6.76 µM
- TGI (SK-MEL-5 melanoma): 19 µM
- TGI (SK-OV-3 ovarian): 38.1 µM
- TGI (SN12C renal): 23.9 µM
- TGI (SNB-19 CNS): 44.5 µM
- TGI (SNB-75 CNS): 31.4 µM
- TGI (SNB-78 CNS): 21 µM
- TGI (SR leukemia): 2.28 µM
- TGI (SW-620 colon): 3.23 µM
- TGI (T-47D breast): 5.98 µM
- TGI (TK-10 renal): 3.42 µM
- TGI (U251 CNS): 34 µM
- TGI (UACC-257 melanoma): 9.13 µM
- TGI (UACC-62 melanoma): 17.8 µM
- TGI (UO-31 renal): 14 µM
- TGI (XF 498 CNS): 3.56 µM

Structure (SMILES): COc1cc(C2C(C(=O)O)=C(C)Oc3cc4c(cc32)OCO4)cc(OC)c1OC (stereo not given)
- TGI (786-0 renal): > 100 µM
- TGI (A549 NSCLC): > 100 µM
- TGI (ACHN renal): > 100 µM
- TGI (CAKI-1 renal): > 100 µM
- TGI (CCRF-CEM leukemia): > 100 µM
- TGI (COLO 205 colon): 60.6 µM
- TGI (DLD-1 colon): > 100 µM
- TGI (DMS 114 small cell lung): 50.6 µM
- TGI (DMS 273 small cell lung): > 100 µM
- TGI (EKVX NSCLC): > 100 µM
- TGI (HCT-116 colon): > 100 µM
- TGI (HCT-15 colon): > 100 µM
- TGI (HL-60(TB) leukemia): 50.8 µM
- TGI (HOP-18 NSCLC): > 100 µM
- TGI (HOP-92 NSCLC): > 100 µM
- TGI (HT29 colon): > 100 µM
- TGI (IGROV1 ovarian): > 100 µM
- TGI (K-562 leukemia): > 100 µM
- TGI (KM20L2 colon): > 100 µM
- TGI (LOX IMVI melanoma): > 100 µM
- TGI (M14 melanoma): > 100 µM
- TGI (M19-MEL melanoma): > 100 µM
- TGI (MALME-3M melanoma): > 100 µM
- TGI (MOLT-4 leukemia): > 100 µM
- TGI (NCI-H23 lung): > 100 µM
- TGI (NCI-H460 lung): > 100 µM
- TGI (OVCAR-3 ovarian): 48.1 µM
- TGI (OVCAR-4 ovarian): > 100 µM
- TGI (OVCAR-8 ovarian): > 100 µM
- TGI (RXF 393 renal): > 100 µM
- TGI (RXF-631 renal): > 100 µM
- TGI (SF-295 CNS): 59.5 µM
- TGI (SK-MEL-28 melanoma): > 100 µM
- TGI (SK-MEL-5 melanoma): > 100 µM
- TGI (SK-OV-3 ovarian): 91.2 µM
- TGI (SN12C renal): > 100 µM
- TGI (SNB-19 CNS): > 100 µM
- TGI (SNB-75 CNS): 53.1 µM
- TGI (SNB-78 CNS): > 100 µM
- TGI (SW-620 colon): > 100 µM
- TGI (TK-10 renal): > 100 µM
- TGI (U251 CNS): > 100 µM
- TGI (UACC-257 melanoma): > 100 µM
- TGI (UACC-62 melanoma): > 100 µM
- TGI (UO-31 renal): > 100 µM
- TGI (XF 498 CNS): 95.9 µM
